Experimental data as given in patent US6313180A, “Steroid compounds having contraceptive and anti-osteoporosis activity” (priority 1997, dated 2001).
Like-named read-outs stand apart in the source and are kept apart here.

How the values were obtained:
[1] = test system: human progesterone (P) receptor; test: Relative progesterone receptor binding affinity, cytoplasmic receptors of MCF-7 cells; details: relative to (16α)-16-ethyl-21-hydroxy-19-norpregn-4-ene-3,20-dione, 16 h, 4° C
[2] = target: T1, human estradiol (E) receptor (Homo sapiens, UniProt P03372); assay type: binding
T1 construct: present in human breast tumor cells (MCF-7 cells); endogenous in cells; host or cells: MCF-7 human breast tumor cells
T1 sequence (P03372 1-595): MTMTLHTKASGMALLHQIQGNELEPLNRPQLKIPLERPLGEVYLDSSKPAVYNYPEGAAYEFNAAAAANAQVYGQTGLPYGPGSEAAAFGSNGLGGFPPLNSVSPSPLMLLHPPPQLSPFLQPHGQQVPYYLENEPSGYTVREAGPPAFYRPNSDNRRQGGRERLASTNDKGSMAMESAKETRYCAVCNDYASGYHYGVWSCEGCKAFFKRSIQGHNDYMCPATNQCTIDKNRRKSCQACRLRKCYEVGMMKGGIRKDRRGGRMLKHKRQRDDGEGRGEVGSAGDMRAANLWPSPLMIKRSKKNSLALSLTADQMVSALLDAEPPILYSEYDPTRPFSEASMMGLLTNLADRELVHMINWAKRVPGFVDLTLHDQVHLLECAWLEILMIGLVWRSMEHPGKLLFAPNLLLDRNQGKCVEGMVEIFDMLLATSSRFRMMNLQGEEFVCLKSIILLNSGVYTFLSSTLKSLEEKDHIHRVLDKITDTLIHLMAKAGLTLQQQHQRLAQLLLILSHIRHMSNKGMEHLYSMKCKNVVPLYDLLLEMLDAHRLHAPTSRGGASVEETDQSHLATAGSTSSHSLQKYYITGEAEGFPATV
Experimental: The relative estradiol receptor binding affinity was measured in the same manner as described above but using 17βestradiol as a reference.
(§1) Several of the compounds according to the Examples I-VI, as well as other compounds according to the invention synthesized in analogous manner, were subjected to the tests described in the Examples VII and VIII. The results are described in the Table, in which the type of A-ring and the substitution at carbon atoms nos. 7, 11, and 17 is indicated. In the columns captioned E and P, the relative binding affinities for the estrogen and progesterone receptors are given; the ED50 results of the AllenDoisy and the McPhail tests have been indicated in μg/kg. In the column captioned "Osteoporosis", the ED50 results of the anti-osteoporosis test are given (dose in μg/kg, day, as described above).

[3] = Allen Doisy test for estrogenic activity in vivo; details: read-out: AllenDoisy ED50
ovariectomised rats = test: Prevention of ovariectomy-induced bone loss in rats (anti-osteoporosis test, pQCT trabecular bone mineral density); assay type: in vivo, rat (female Wistar); details: Rattus norvegicus, 672 h, read-out: Osteoporosis ED50
Description: Ovariectomy induces in rats bone loss, which is due to oestrogen deficiency. Administration of oestrogenic compounds prevents this effect. The test is used to evaluate a compound for anti-osteoporotic activity in ovariectomised rats. The effect on bone mass can be evaluated by peripheral Quantitave Computed Tomography (pQCT) measurement of trabecular bone mineral density.
Mature virgin female Wistar rats preferentially, 225-250 g. Strain: Hsd/Cpd:Wu, SPF-bred by Harlan, CPB, Zeist, The Netherlands.
On day 1 of the experiment the rats are weighed and distributed over the cages in order of body weight. The rat with the lowest body weight in the first cage and the heaviest rat in the last cage. Treatments are randomized over the rats per block. A block (group of 3+n treatments) consists of 1 Intact placebo rat, 1 OVX placebo rat, 1 OVX reference rat and 1 rat of each n treatments.
Sham-operation and ovariectomy are performed under ether anaesthesia. After recovery from the anaesthesia, within 24 h, vehicle, reference compound or test compound is administered once or twice daily for 4 weeks.
Trabecular bone mineral density (mg/cm^3) of the metaphyseal part of the femur was measured with a pQCT (peripheral Quantitative Computed Tomography machine; XCT 960A, Stratec, Birkenfeld, Germany) directly after autopsy on fresh tissue. Two 360° scans, which have, due to the X-ray beam, a standard thickness of 1 mm were taken. The scans have a resolution of 0.148×0.148 mm. One scan was taken at 5.5 mm from the distal end of the femur, where trabecular bone mineral density of the metaphyseal part was measured. The other scan was taken in the diaphysis at 13.5 mm from the distal end, which contains no trabecular bone. In the latter scan cortical bone mineral density and the geometrical parameters, such as cortical thickness, total bone area, outer and inner diameter, were determined. Intra- and inter-assay variation for the measurement of trabecular bone mineral density in the distal femur were about 2-3%. The XCT-960A was calibrated with a standard of hydroxyapatite embedded in acrylic plastic.
Ovariectomy causes a statistically significant decrease in trabecular bone mineral density (P≤0.05, 2 way ANOVA).
The active dose (ED50) is the dose where a mean proportional difference in trabecular bone mineral density between 40 and 60% is reached as compared to the sham and ovariectomised group.
as §1

[4] = McPhail test for progestagenic activity in vivo; details: read-out: McPhail ED50
[5] = oral administration, estrogenic activity
[6] = oral administration, ovariectomised rats, once or twice daily for 4 weeks, 40-60% proportional difference in trabecular bone mineral density
[7] = oral administration, progestagenic activity

| SMILES | Relative binding affinity to the human progesterone (P) receptor [1] [%] | Relative binding affinity to the human estradiol (E) receptor [2] [%] | ED50 [3, 5] [mg/kg] | ED50 (ovariectomised rats; [6]) [mg/kg] | ED50 [4, 7] [mg/kg] | ED50 ([3]; po) [mg/kg] | ED50 (ovariectomised rats; po) [mg/kg] | ED50 ([4]; po) [mg/kg] |
| --- | --- | --- | --- | --- | --- | --- | --- | --- |
| C[C@]12CC[C@@H]3c4ccc(O)cc4CC[C@H]3[C@@H]1C[C@H]1CCCC[C@]12O [Code 37469] | 23 | 1 | > 4 | > 4 | > 2 |  |  |  |
| C[C@]12CC[C@@H]3C4=C(CC[C@H]3[C@@H]1C[C@H]1CCCC[C@]12O)CC(=O)CC4 [Code 37516] | 13 |  | > 4 | > 2 | 1 |  |  |  |
| C[C@]12CC[C@H]3[C@@H](CCC4=CC(=O)CC[C@@H]43)[C@@H]1C[C@H]1CCCC[C@]12O [Code 37518] | 115 |  |  |  |  | > 4 | > 2 | 0.125 |
| C[C@@H]1Cc2cc(O)ccc2[C@H]2CC[C@@]3(C)[C@@H](C[C@H]4CCCC[C@]43O)[C@H]12 [Code 37828] | 10 | 11 | 0.192 | 0.5 |  |  |  |  |
| CC[C@H]1C[C@@]2(C)[C@@H](C[C@H]3CCCC[C@]32O)[C@@H]2CCc3cc(O)ccc3[C@@H]12 [Code 37862] | 2 | 96 | 0.032 | < 0.016 |  |  |  |  |
| C[C@H]1C[C@@H]2C[C@H]3[C@@H]4[C@H](C)Cc5cc(O)ccc5[C@H]4CC[C@]3(C)[C@]2(O)C1 [Code 37893] | 11 | 38 | 0.5 | 0.5 | > 4 |  |  |  |
| CC[C@H]1C[C@@]2(C)[C@@H](C[C@H]3CCCC[C@]32O)[C@@H]2CCC3=CC(=O)CC[C@@H]3[C@@H]12 [Code 37943] | 96 |  |  |  |  | 0.192 | 0.4 | 1 |
| CCC[C@@H]1C[C@@H]2C[C@H]3[C@@H]4CCc5cc(O)ccc5[C@H]4CC[C@]3(C)[C@]2(O)C1 [Code 37968] | 6 | 1 | > 1 |  | > 4 |  |  |  |
| CCC[C@H]1C[C@@H]2C[C@H]3[C@@H]4CCc5cc(O)ccc5[C@H]4CC[C@]3(C)[C@]2(O)C1 [Code 37969] | 25 | 3 | > 1 | > 1 | 4 |  |  |  |
| CCC[C@H]1C[C@@H]2C[C@H]3[C@@H]4CCC5=CC(=O)CC[C@@H]5[C@H]4CC[C@]3(C)[C@]2(O)C1 [Code 37977] | 151 |  |  |  |  | > 4 | > 1 | 0.5 |
| C[C@H]1C[C@@H]2C[C@H]3[C@H]4[C@H](CC[C@]3(C)[C@]2(O)C1)[C@H]1CCC(=O)C=C1C[C@H]4C [Code 38049] | 250 |  |  |  |  | > 2 | > 1 | 1 |
| CCC[C@H]1C[C@H]2C[C@H]3[C@@H]4[C@H](C)Cc5cc(O)ccc5[C@H]4CC[C@]3(C)[C@@]2(O)C1 [Code 38079] | 1 | < 1 | > 4 |  |  |  |  |  |
| CCC[C@@H]1C[C@@H]2C[C@H]3[C@@H]4CCC5=C(CCC(=O)C5)[C@H]4[C@@H](CC)C[C@]3(C)[C@]2(O)C1 [Code 38151] | 8 |  | 0.125 |  | > 1 |  |  |  |
| CCCC[C@@H]1C[C@@H]2C[C@H]3[C@@H]4CCC5=CC(=O)CC[C@@H]5[C@H]4[C@@H](C)C[C@]3(C)[C@]2(O)C1 [Code 38276, (4'R,11-beta,16-beta-17-beta)-4'-butyl-4',5',16,17-tetrahydro-17-hydroxy-11-methyl-3'H-cyclopenta[16,17]estra-4,16-dien-3-one] | 115 |  | > 0.5 | > 1 | 0.125 |  |  |  |
| C[C@H]1C[C@@]2(C)[C@@H](C[C@H]3C[C@H](CN=[N+]=[N-])C[C@]32O)[C@@H]2CCC3=CC(=O)CC[C@@H]3[C@H]21 [Code 38322] | 44 |  | > 0.5 | > 1 | 0.063 |  |  |  |
| CCC[C@@H]1Cc2cc(O)ccc2[C@H]2CC[C@@]3(C)[C@@H](C[C@@H]4C[C@@H](C)C[C@@]43O)[C@H]12 [Code 38513] |  | 0.2 | 2 |  | > 0.125 |  |  |  |
| C[C@H]1C[C@@H]2C[C@H]3[C@@H]4CCC5=CC(=O)CC[C@@H]5[C@H]4CC[C@]3(C)[C@]2(O)C1 [Code 38541] | 58 |  |  |  |  | > 0.5 | > 1 | 0.125 |
| CCC[C@@H]1CC2=CC(=O)CC[C@@H]2[C@H]2CC[C@@]3(C)[C@@H](C[C@H]4C[C@@H](C)C[C@]43O)[C@H]12 [Code 38550] | 36 |  | 0.125 | 0.125 | > 0.125 |  |  |  |
| CCC[C@H]1C[C@@H]2C[C@H]3[C@@H]4CCC5=CC(=O)CC[C@@H]5[C@H]4[C@@H](CC)C[C@]3(C)[C@]2(O)C1 [Code 38577] | 139 |  | 0.192 | 0.25 | > 0.5 |  |  |  |
| CC[C@H]1C[C@@H]2C[C@H]3[C@@H]4CCC5=CC(=O)CC[C@@H]5[C@H]4[C@@H](CC)C[C@]3(C)[C@]2(O)C1 [Code 38610] | 0.3 |  | 0.032 | 0.125 | > 0.125 |  |  |  |
